# ChEMBL document CHEMBL1150281, “Oleanane-type triterpenes from the flowers and roots of Saussurea muliensis” (2008)
# Tested on: Candida albicans
# Experiment: Antimicrobial activity against Candida albicans
# Format: functional
row,SMILES,MIC [µg/mL]
1,CC1(C)[C@@H](O)CC[C@]2(C)[C@H]3CC=C4[C@@H]5C[C@@](C)(C(=O)O)C[C@H](O)[C@]5(C)CC[C@@]4(C)[C@]3(C)CC[C@@H]12,> 50
2,CC1(C)[C@H](OC(=O)/C=C/c2ccc(O)cc2)CC[C@]2(C)[C@H]3CC=C4[C@@H]5C[C@@](C)(C(=O)O)CC[C@]5(C)CC[C@@]4(C)[C@]3(C)CC[C@@H]12,> 50
3,CO[C@]1(CO)C[C@H]2C3=CC[C@@H]4[C@@]5(C)CC[C@@H](OC(C)=O)C(C)(C)[C@@H]5CC[C@@]4(C)[C@]3(C)CC[C@@]2(C)[C@@H](OC(C)=O)[C@H]1O,> 50

# Now from value to compound:
row,MIC [µg/mL],SMILES
1,> 50,CC(=O)O[C@@H]1CC[C@]2(C)[C@H]3CC=C4[C@@H]5C[C@](O)(CO)[C@H](O)[C@H](OC(C)=O)[C@]5(C)CC[C@@]4(C)[C@]3(C)CC[C@H]2C1(C)C
2,> 50,CC1(C)[C@H](OC(=O)/C=C/c2ccc(O)c(O)c2)CC[C@]2(C)[C@H]3CC=C4[C@@H]5C[C@@](C)(C(=O)O)CC[C@]5(C)CC[C@@]4(C)[C@]3(C)CC[C@@H]12
3,> 50,CCCCCCCCCCCCCCCC(=O)OC[C@@]1(O)C[C@H]2C3=CC[C@@H]4[C@@]5(C)CC[C@@H](OC(C)=O)C(C)(C)[C@@H]5CC[C@@]4(C)[C@]3(C)CC[C@@]2(C)[C@@H](OC(C)=O)[C@H]1O

# Tested on: Staphylococcus aureus
# Experiment: Antimicrobial activity against Staphylococcus aureus ATCC 25923
# Format: functional
row,SMILES,MIC [µg/mL]
1,CC1(C)[C@@H](O)CC[C@]2(C)[C@H]3CC=C4[C@@H]5C[C@@](C)(C(=O)O)C[C@H](O)[C@]5(C)CC[C@@]4(C)[C@]3(C)CC[C@@H]12,> 50
2,CC1(C)[C@H](OC(=O)/C=C/c2ccc(O)cc2)CC[C@]2(C)[C@H]3CC=C4[C@@H]5C[C@@](C)(C(=O)O)CC[C@]5(C)CC[C@@]4(C)[C@]3(C)CC[C@@H]12,> 50
3,CO[C@]1(CO)C[C@H]2C3=CC[C@@H]4[C@@]5(C)CC[C@@H](OC(C)=O)C(C)(C)[C@@H]5CC[C@@]4(C)[C@]3(C)CC[C@@]2(C)[C@@H](OC(C)=O)[C@H]1O,> 50

# Other lines, results leading:
row,MIC [µg/mL],SMILES
1,> 50,CC(=O)O[C@@H]1CC[C@]2(C)[C@H]3CC=C4[C@@H]5C[C@](O)(CO)[C@H](O)[C@H](OC(C)=O)[C@]5(C)CC[C@@]4(C)[C@]3(C)CC[C@H]2C1(C)C
2,> 50,CC1(C)[C@H](OC(=O)/C=C/c2ccc(O)c(O)c2)CC[C@]2(C)[C@H]3CC=C4[C@@H]5C[C@@](C)(C(=O)O)CC[C@]5(C)CC[C@@]4(C)[C@]3(C)CC[C@@H]12
3,> 50,CCCCCCCCCCCCCCCC(=O)OC[C@@]1(O)C[C@H]2C3=CC[C@@H]4[C@@]5(C)CC[C@@H](OC(C)=O)C(C)(C)[C@@H]5CC[C@@]4(C)[C@]3(C)CC[C@@]2(C)[C@@H](OC(C)=O)[C@H]1O

# Tested on: Bacillus cereus
# Experiment: Antimicrobial activity against Bacillus cereus
# Format: functional
row,SMILES,MIC [µg/mL]
1,CC1(C)[C@@H](O)CC[C@]2(C)[C@H]3CC=C4[C@@H]5C[C@@](C)(C(=O)O)C[C@H](O)[C@]5(C)CC[C@@]4(C)[C@]3(C)CC[C@@H]12,> 50
2,CC1(C)[C@H](OC(=O)/C=C/c2ccc(O)cc2)CC[C@]2(C)[C@H]3CC=C4[C@@H]5C[C@@](C)(C(=O)O)CC[C@]5(C)CC[C@@]4(C)[C@]3(C)CC[C@@H]12,> 50
3,CO[C@]1(CO)C[C@H]2C3=CC[C@@H]4[C@@]5(C)CC[C@@H](OC(C)=O)C(C)(C)[C@@H]5CC[C@@]4(C)[C@]3(C)CC[C@@]2(C)[C@@H](OC(C)=O)[C@H]1O,> 50

# Second part, the compound after the results:
row,MIC [µg/mL],SMILES
1,> 50,CC(=O)O[C@@H]1CC[C@]2(C)[C@H]3CC=C4[C@@H]5C[C@](O)(CO)[C@H](O)[C@H](OC(C)=O)[C@]5(C)CC[C@@]4(C)[C@]3(C)CC[C@H]2C1(C)C
2,> 50,CC1(C)[C@H](OC(=O)/C=C/c2ccc(O)c(O)c2)CC[C@]2(C)[C@H]3CC=C4[C@@H]5C[C@@](C)(C(=O)O)CC[C@]5(C)CC[C@@]4(C)[C@]3(C)CC[C@@H]12
3,> 50,CCCCCCCCCCCCCCCC(=O)OC[C@@]1(O)C[C@H]2C3=CC[C@@H]4[C@@]5(C)CC[C@@H](OC(C)=O)C(C)(C)[C@@H]5CC[C@@]4(C)[C@]3(C)CC[C@@]2(C)[C@@H](OC(C)=O)[C@H]1O

# Tested on: Escherichia coli
# Experiment: Antimicrobial activity against Escherichia coli ATCC 25922
# Format: functional
row,SMILES,MIC [µg/mL]
1,CC1(C)[C@@H](O)CC[C@]2(C)[C@H]3CC=C4[C@@H]5C[C@@](C)(C(=O)O)C[C@H](O)[C@]5(C)CC[C@@]4(C)[C@]3(C)CC[C@@H]12,> 50
2,CC1(C)[C@H](OC(=O)/C=C/c2ccc(O)cc2)CC[C@]2(C)[C@H]3CC=C4[C@@H]5C[C@@](C)(C(=O)O)CC[C@]5(C)CC[C@@]4(C)[C@]3(C)CC[C@@H]12,> 50
3,CO[C@]1(CO)C[C@H]2C3=CC[C@@H]4[C@@]5(C)CC[C@@H](OC(C)=O)C(C)(C)[C@@H]5CC[C@@]4(C)[C@]3(C)CC[C@@]2(C)[C@@H](OC(C)=O)[C@H]1O,> 50

# Other lines, results leading:
row,MIC [µg/mL],SMILES
1,> 50,CC(=O)O[C@@H]1CC[C@]2(C)[C@H]3CC=C4[C@@H]5C[C@](O)(CO)[C@H](O)[C@H](OC(C)=O)[C@]5(C)CC[C@@]4(C)[C@]3(C)CC[C@H]2C1(C)C
2,> 50,CC1(C)[C@H](OC(=O)/C=C/c2ccc(O)c(O)c2)CC[C@]2(C)[C@H]3CC=C4[C@@H]5C[C@@](C)(C(=O)O)CC[C@]5(C)CC[C@@]4(C)[C@]3(C)CC[C@@H]12
3,> 50,CCCCCCCCCCCCCCCC(=O)OC[C@@]1(O)C[C@H]2C3=CC[C@@H]4[C@@]5(C)CC[C@@H](OC(C)=O)C(C)(C)[C@@H]5CC[C@@]4(C)[C@]3(C)CC[C@@]2(C)[C@@H](OC(C)=O)[C@H]1O
